# Reference: publication PMC3556473, “Absorption, metabolism and excretion of [^14C]pomalidomide in humans following oral administration” (Cancer Chemotherapy and Pharmacology, 2012)
# Values joined by “and” are separate entries in the source; they are usually repeats but may differ in a detail not shown here. Equal entries are not always repeated.
# Experiments:
# [1] = Pharmacokinetics of total radioactivity in whole blood and plasma after a single oral 2 mg dose of [14C]pomalidomide; assay type: in vivo, human
# Method: (§1) Each subject was administered a single oral suspension of 2 mg (100 μCi) of [^14C]pomalidomide in seltzer water (75 mL) followed by administration of an additional 140 mL of distilled water. Subjects were fasted for 8 h prior to and 4 h following dose administration. The residual radioactivity in the dosing vials was determined, and for six of the eight subjects (subjects 1–4, 6 and 8), the administered dose (1.93–2.02 mg) was close to the target dose of 2 mg. For subjects 5 and 7, a significant amount of radioactivity remained in the dose vial, resulting in administered doses of 1.59 and 1.51 mg, respectively. Calculations for percent of dose recovered in excreta were based on the actual administered doses.
# (§2) Blood was collected into pre-chilled K3EDTA tubes at pre-dose, 0.5, 1, 1.5, 2, 2.5, 3, 4, 6, 8, 10, 12, 24, 48, 72, 120 and 168 h following dose administration. Blood for radioactivity counting was transferred to a clean tube and stored at or below 4 °C until analyzed. Plasma was harvested by centrifugation from the remaining blood. A plasma sample for radioactivity counting was transferred to a fresh tube. Three plasma aliquots were transferred to tubes containing citric acid for metabolite profiling and for determination of pomalidomide enantiomer concentrations in plasma. Urine was collected pre-dose, 0–6, 6-12, 12–24 and every 24 h thereafter up to 216 h (9 days) following dose administration and were stabilized with one volume of pH 1.5 Sorensen’s citrate buffer (25 mM sodium citrate buffer adjusted to pH 1.5). During the 12- to 24-h collection interval for subject 4, approximately 550 mL of urine was inadvertently poured into the wrong collection urinal and the sample was lost. […] Individual fecal samples were collected pre-dose and for up to 9 days following dose administration, and homogenized using approximately three volumes by weight of pH 1.5 Sorensen’s citrate buffer. All urine, fecal homogenates and plasma samples were stored at or below −20 °C until analyzed.
# (§3) All radioactivity determinations were performed using Tri-Carb model 2900TR liquid scintillation counter (PerkinElmer, Wellesley, MA). For plasma, urine and residual dose vial analysis, duplicate samples were mixed with Ultima Gold XR scintillation cocktail and directly analyzed by liquid scintillation counting. For fecal homogenate and blood samples, duplicate aliquots were weighed, allowed to dry and combusted using a PerkinElmer model 307 sample oxidizer. The resultant [^14C]CO2 was trapped in Carbosorb (PerkinElmer) in combination with Permafluor and assayed by liquid scintillation counting. For all matrices, any sample that was less than two times the background dpm was assigned a value of zero. Using these criteria, the lower limits of quantification in plasma, blood, urine and feces were 0.894 ng [^14C]pomalidomide equivalent/mL (ngEq/mL), 0.939 ngEq/g, 0.871 ngEq/mL and 2.96 ngEq/g, respectively.
# Standard pharmacokinetic parameters were estimated from the pomalidomide (as the sum of the enantiomer concentrations at each time point) and enantiomer concentration versus time profiles or the blood and plasma radioactive concentration equivalents versus time profiles using established non-compartmental methods with WinNonlin (Version 5.2, Pharsight Corp., CA). Pre-dose samples that were below the limit of quantification (BLQ) or missing were assigned a numerical value of zero for the calculation of AUC. All post-dose BLQ were treated as missing in the PK analysis.
# Total radioactivity in whole blood and plasma was converted to nanogram equivalent (ngEq) concentrations (ngEq/g for whole blood or ngEq/mL for plasma) based on the actual specific activity of the dose.
# [2] = Excretion of radioactivity in urine and feces (mass balance); assay type: in vivo, human
# Method: as §1, §2, §3
# The amount of total radioactivity (ngEq) in urine and feces was determined by multiplying the volume or weight of the samples by the radioactivity concentration. The dose recovered at each time point was determined by total radioactivity in the sample, divided by the total dose administered, multiplied by 100 %. For data BLQ values, a value of zero was assigned for calculations of means.
# [3] = plasma, as [14C]pomalidomide equivalents, mean ± SD
# [4] = whole blood, as [14C]pomalidomide equivalents, mean ± SD
# [5] = percentage of dose, over 216 h, listed as [^14C]pomalidomide
smiles,measurement,setting,value
"Nc1cccc2c1C(=O)N(C1CCC(=O)NC1=O)C2=O (racemic) [Pomalidomide, (RS)-4-amino-2-(2,6-dioxo-piperidin-3-yl)-isoindoline-1,3-dione]","AUC0−t, plasma total radioactivity",[1]; [3],189 ± 88 ng·h/mL
same,"AUC0−∞, plasma total radioactivity",[1]; [3],225 ± 94 ng·h/mL
same,"AUC0–24, TRA (total radioactivity)","[1]; plasma, geometric mean (%CV)",194 (27.6) ngEq*h/mL
same,"AUC0−∞, TRA (total radioactivity)","[1]; plasma, geometric mean (%CV)",245 (37.9) ngEq*h/mL
same,"C max, TRA (total radioactivity)","[1]; plasma, geometric mean (%CV)",14.8 (17.8) ngEq/mL
same,"t ½, TRA (total radioactivity)","[1]; plasma, geometric mean (%CV)",10.3 (23.5) h
same,"t ½, plasma total radioactivity","[1]; plasma, mean ± SD, listed as [^14C]pomalidomide",11.2 ± 2.5 h
same,"T max, plasma total radioactivity","[1]; plasma, median (min–max), listed as [^14C]pomalidomide",3.25 (1.0–4.0) h
same,"T max, TRA (total radioactivity)","[1]; plasma, median and range",2.5 (1.0–4.0) h
same,"C max, plasma total radioactivity","[1]; plasma, single oral 2 mg, mean ± SD",12.1 ± 2.2 ng [^14C]pomalidomide equivalent/mL
same,"Radioactivity blood to plasma ratio, AUC0−t",[1]; single oral 2 mg,0.84
same,"Radioactivity blood to plasma ratio, AUC0−∞",[1]; single oral 2 mg,0.87
same,"Radioactivity blood to plasma ratio, C max",[1]; single oral 2 mg,0.80
same,"AUC0−t, whole blood total radioactivity",[1]; [4],225 ± 99 ng·h/mL
same,"AUC0−∞, whole blood total radioactivity",[1]; [4],260 ± 102 ng·h/mL
same,"t ½, whole blood total radioactivity","[1]; whole blood, mean ± SD",10.2 ± 1.9 h
same,"T max, whole blood total radioactivity","[1]; whole blood, median (min–max)",2.5 (1.0–4.0) h
same,"C max, whole blood total radioactivity","[1]; whole blood, single oral 2 mg, mean ± SD",15.1 ± 2.7 ng [^14C]pomalidomide equivalent/mL
same,mean total recovery of radioactivity (urine + feces),"[2]; % of radioactive dose, collection over 216 h (9 days), eight subjects, listed as [^14C]pomalidomide",88% and 88.3%
same,oral absorption,[2]; inferred from urinary radioactivity and unchanged drug in feces,> 70%
same,"radioactivity excreted in feces, mean",[2]; [5],15% and 15.5 ± 2.5%
same,"radioactivity excreted in urine, mean",[2]; [5],73% and 72.8 ± 16.7%
same,radioactivity recovered within the first 48 h after dose administration,[2]; urine + feces,> 80%
